Patent US8067424B2, “Selective inhibitors for cyclin-dependent kinases” (Emory University, priority 2007, dated 2011)
Where two headings read alike, the source gives them in different places.

Tests used:
[1] = molecular target: NEK7 (Homo sapiens, UniProt Q8TDX7); assay: Kinase screen: NEK7 assay; format: biochemical; details: read-out: Mean Remaining Enzyme Activity (%)
Procedure: Generally, the same procedure was used for all assays. Since the total assay volume was 25.5 microliters, 0.5 microliters of inhibitors at 51× assay concentration were added to the plates before any other addition.
The basic procedure was to add 0.5 microliters inhibitor/control in DMSO to plate. Fifteen microliters of enzyme/substrate/buffer mix were added and incubated for 5 min. Ten microliters MgATP at the relevant concentration were added and incubated for 30 min. The assay was stopped by adding 5 microliters of 3% orthophosphoric acid. The assay was transferred to a p81 filter plate and read in a scintillation counter of 30 sec/well. Note that this assay procedure was not followed for MKK1, which instead involved a two-step assay, and PKC alpha, which required the addition of lipid vesicles.
(500-1000 cpm/pmole) and incubated for 30 min at room temperature. Assays were stopped by addition of 5 μl of 0.5 M (3%) orthophosphoric acid and then harvested onto P81 Unifilter plates with a wash buffer of 50 mM orthophosphoric acid.

[2] = test system: NCI-H226
[3] = test system: U251
[4] = test system: SF-295
[5] = test system: SF-268; assay: cells; details: Homo sapiens
[6] = test system: MOLT-4
[7] = test system: HOP-62
[8] = test system: UACC-257
[9] = test system: SN12C; details: for Mean Optical Densities / Percent Growth: SN12C
[10] = test system: MALME-3M; details: for Mean Optical Densities / Percent Growth: MALME-3M
[11] = test system: ACHN; details: for Mean Optical Densities / Percent Growth: ACHN
[12] = test system: OVCAR-3
[13] = test system: HS 578T; details: for Mean Optical Densities / Percent Growth: HS 578T
[14] = NCI-H226, log10 concentration −4.0
[15] = NCI-H226, log10 concentration −5.0
[16] = NCI-H226, log10 concentration −6.0
[17] = NCI-H226, log10 concentration −7.0
[18] = NCI-H226, log10 concentration −8.0
[19] = SF-295, log10 concentration −4.0
[20] = SF-295, log10 concentration −5.0
[21] = SF-295, log10 concentration −6.0
[22] = SF-295, log10 concentration −7.0
[23] = SF-295, log10 concentration −8.0
[24] = MOLT-4, log10 concentration −4.0
[25] = MOLT-4, log10 concentration −6.0
[26] = MOLT-4, log10 concentration −7.0
[27] = MOLT-4, log10 concentration −8.0
[28] = HOP-62, log10 concentration −4.0
[29] = HOP-62, log10 concentration −5.0
[30] = HOP-62, log10 concentration −6.0
[31] = HOP-62, log10 concentration −7.0
[32] = HOP-62, log10 concentration −8.0
[33] = UACC-257, log10 concentration −4.0
[34] = UACC-257, log10 concentration −5.0
[35] = UACC-257, log10 concentration −6.0
[36] = UACC-257, log10 concentration −7.0
[37] = UACC-257, log10 concentration −8.0
[38] = OVCAR-3, log10 concentration −4.0
[39] = OVCAR-3, log10 concentration −5.0
[40] = OVCAR-3, log10 concentration −6.0
[41] = OVCAR-3, log10 concentration −7.0
[42] = OVCAR-3, log10 concentration −8.0

NEK7, sequence (Q8TDX7 whole entry, species assumed): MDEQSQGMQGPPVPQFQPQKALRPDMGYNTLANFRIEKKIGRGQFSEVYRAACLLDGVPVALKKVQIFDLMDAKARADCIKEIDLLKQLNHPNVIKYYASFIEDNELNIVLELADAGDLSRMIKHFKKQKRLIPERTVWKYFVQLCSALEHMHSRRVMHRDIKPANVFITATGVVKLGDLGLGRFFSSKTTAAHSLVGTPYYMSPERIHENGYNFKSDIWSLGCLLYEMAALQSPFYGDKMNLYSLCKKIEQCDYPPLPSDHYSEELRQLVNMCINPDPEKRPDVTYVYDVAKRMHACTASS

Work on `CC(C)c1cnn2c(NCc3ccccc3)cc(NCCCCCCCN)nc12` [BS-181] yielded a remaining activity at 10 µM [1] of 97%.

With `CC(C)c1cnn2c(NCc3ccccc3)cc(N[C@@H](CO)[C@H](O)CO)nc12` [ICEC0318, (3S)-3-(7-(Benzylamino)-3-isopropylpyrazolo[1,5-a]pyrimidin-5-ylamino)butane-1,2,4-triol] the “Mean Optical Densities” value [2, 14] was 0.725, the “Percent Growth” value [2, 14] was 4% and the “Mean Optical Densities” value [2, 15] was 0.613. The “Percent Growth” value [2, 15] was −9%, the “Mean Optical Densities” value [2, 16] was 0.662 and the “Percent Growth” value [2, 16] was −1%. For the same compound, the “Mean Optical Densities” value [2, 17] was 1.920, the “Percent Growth” value [2, 17] was 89% and the “Mean Optical Densities” value [2, 18] was 2.076. The “Percent Growth” value [2, 18] was 101%, the TGI ([3]; U251 (CNS Cancer)) was >1.00E−4 and the “Mean Optical Densities” value ([3]; U251, log10 concentration −4.0) was 0.262. The “Percent Growth” value ([3]; U251, log10 concentration −4.0) was 2%, the “Mean Optical Densities” value ([3]; U251, log10 concentration −5.0) was 0.289 and the “Percent Growth” value ([3]; U251, log10 concentration −5.0) was 5%. The “Mean Optical Densities” value ([3]; U251, log10 concentration −6.0) was 0.299, the “Percent Growth” value ([3]; U251, log10 concentration −6.0) was 6% and the “Mean Optical Densities” value ([3]; U251, log10 concentration −7.0) was 0.999. The “Percent Growth” value ([3]; U251, log10 concentration −7.0) was 81%, the “Mean Optical Densities” value ([3]; U251, log10 concentration −8.0) was 1.168 and the “Percent Growth” value ([3]; U251, log10 concentration −8.0) was 99%. For the same compound, the TGI ([4]; SF-295 (CNS Cancer)) was 3.10E−5, the “Mean Optical Densities” value [4, 19] was 0.371 and the “Percent Growth” value [4, 19] was −4%. For the same compound, the “Mean Optical Densities” value [4, 20] was 0.427, the “Percent Growth” value [4, 20] was 4% and the “Mean Optical Densities” value [4, 21] was 0.447. For the same compound, the “Percent Growth” value [4, 21] was 6%, the “Mean Optical Densities” value [4, 22] was 1.288 and the “Percent Growth” value [4, 22] was 83%. For the same compound, the “Mean Optical Densities” value [4, 23] was 1.492, the “Percent Growth” value [4, 23] was 101% and the GI50 ([5]; SF-268) was 326 nM. For the same compound, the CC50 ([5]; SF-268, read-out: LC50) was > 100000 nM, the TGI ([6]; MOLT-4 (Leukemia)) was >1.00E−4 and the “Mean Optical Densities” value [6, 24] was 0.449. The “Percent Growth” value [6, 24] was 15%, the “Mean Optical Densities” value ([6]; MOLT-4, log10 concentration −5.0) was 0.329 and the “Mean Optical Densities” value [6, 25] was 0.368. The “Percent Growth” value [6, 25] was 5%, the “Mean Optical Densities” value [6, 26] was 0.987 and the “Percent Growth” value [6, 26] was 82%. The “Mean Optical Densities” value [6, 27] was 1.072, the “Percent Growth” value [6, 27] was 92% and the TGI ([7]; HOP-62 (Non-Small Cell Lung Cancer)) was 7.68E−7. The “Mean Optical Densities” value [7, 28] was 0.336, the “Percent Growth” value [7, 28] was −28% and the “Mean Optical Densities” value [7, 29] was 0.393. The “Percent Growth” value [7, 29] was −15%, the “Mean Optical Densities” value [7, 30] was 0.412 and the “Percent Growth” value [7, 30] was −12%. The “Mean Optical Densities” value [7, 31] was 1.165, the “Percent Growth” value [7, 31] was 89% and the “Mean Optical Densities” value [7, 32] was 1.312. The “Percent Growth” value [7, 32] was 107%, the TGI ([8]; UACC-257 (Melanoma)) was 3.88E−5 and the “Mean Optical Densities” value [8, 33] was 0.848. For the same compound, the “Percent Growth” value [8, 33] was −4%, the “Mean Optical Densities” value [8, 34] was 0.933 and the “Percent Growth” value [8, 34] was 5%. For the same compound, the “Mean Optical Densities” value [8, 35] was 0.948, the “Percent Growth” value [8, 35] was 7% and the “Mean Optical Densities” value [8, 36] was 1.891. For the same compound, the “Percent Growth” value [8, 36] was 100%, the “Mean Optical Densities” value [8, 37] was 1.906 and the “Percent Growth” value [8, 37] was 102%. The TGI ([9]; SN12C (Renal Cancer)) was >1.00E−4, the “Mean Optical Densities” value ([9]; log10 concentration −4.0) was 0.531 and the “Percent Growth” value ([9]; log10 concentration −4.0) was 11%. The “Mean Optical Densities” value ([9]; log10 concentration −5.0) was 0.578, the “Percent Growth” value ([9]; log10 concentration −5.0) was 14% and the “Mean Optical Densities” value ([9]; log10 concentration −6.0) was 0.620. The “Percent Growth” value ([9]; log10 concentration −6.0) was 18%, the “Mean Optical Densities” value ([9]; log10 concentration −7.0) was 1.515 and the “Percent Growth” value ([9]; log10 concentration −7.0) was 84%. For the same compound, the “Mean Optical Densities” value ([9]; log10 concentration −8.0) was 1.702, the “Percent Growth” value ([9]; log10 concentration −8.0) was 98% and the TGI ([10]; MALME-3M (Melanoma)) was 1.09E−6. The “Mean Optical Densities” value ([10]; log10 concentration −4.0) was 0.398, the “Percent Growth” value ([10]; log10 concentration −4.0) was −29% and the “Mean Optical Densities” value ([10]; log10 concentration −5.0) was 0.458. The “Percent Growth” value ([10]; log10 concentration −5.0) was −19%, the “Mean Optical Densities” value ([10]; log10 concentration −6.0) was 0.565 and the “Percent Growth” value ([10]; log10 concentration −6.0) was 1%. For the same compound, the “Mean Optical Densities” value ([10]; log10 concentration −7.0) was 1.008, the “Percent Growth” value ([10]; log10 concentration −7.0) was 126% and the “Mean Optical Densities” value ([10]; log10 concentration −8.0) was 0.958. For the same compound, the “Percent Growth” value ([10]; log10 concentration −8.0) was 112%, the TGI ([11]; ACHN (Renal Cancer)) was >1.00E−4 and the “Mean Optical Densities” value ([11]; log10 concentration −4.0) was 0.343. For the same compound, the “Percent Growth” value ([11]; log10 concentration −4.0) was 5%, the “Mean Optical Densities” value ([11]; log10 concentration −5.0) was 0.347 and the “Percent Growth” value ([11]; log10 concentration −5.0) was 5%. The “Mean Optical Densities” value ([11]; log10 concentration −6.0) was 0.358, the “Percent Growth” value ([11]; log10 concentration −6.0) was 6% and the “Mean Optical Densities” value ([11]; log10 concentration −7.0) was 1.080. The “Percent Growth” value ([11]; log10 concentration −7.0) was 75%, the “Mean Optical Densities” value ([11]; log10 concentration −8.0) was 1.302 and the “Percent Growth” value ([11]; log10 concentration −8.0) was 96%. For the same compound, the GI50 ([12]; Homo sapiens, OVCAR-3) was 335 nM, the CC50 ([12]; Homo sapiens, OVCAR-3, read-out: LC50) was > 100000 nM and the TGI ([12]; OVCAR-3 (Ovarian Cancer)) was >1.00E−4. The “Mean Optical Densities” value [12, 38] was 0.313, the “Percent Growth” value [12, 38] was 9% and the “Mean Optical Densities” value [12, 39] was 0.317. The “Percent Growth” value [12, 39] was 10%, the “Mean Optical Densities” value [12, 40] was 0.306 and the “Percent Growth” value [12, 40] was 8%. The “Mean Optical Densities” value [12, 41] was 0.700, the “Percent Growth” value [12, 41] was 97% and the “Mean Optical Densities” value [12, 42] was 0.795. The “Percent Growth” value [12, 42] was 118%, the TGI ([13]; HS 578T (Breast Cancer)) was 8.54E−7 and the “Mean Optical Densities” value ([13]; log10 concentration −4.0) was 0.314. The “Percent Growth” value ([13]; log10 concentration −4.0) was −22%, the “Mean Optical Densities” value ([13]; log10 concentration −5.0) was 0.352 and the “Percent Growth” value ([13]; log10 concentration −5.0) was −12%. For the same compound, the “Mean Optical Densities” value ([13]; log10 concentration −6.0) was 0.373, the “Percent Growth” value ([13]; log10 concentration −6.0) was −7% and the “Mean Optical Densities” value ([13]; log10 concentration −7.0) was 0.803. The “Percent Growth” value ([13]; log10 concentration −7.0) was 95%, the “Mean Optical Densities” value ([13]; log10 concentration −8.0) was 0.867 and the “Percent Growth” value ([13]; log10 concentration −8.0) was 110%.
